Laboratory results reported in ChEMBL document CHEMBL3813665, “New cytotoxic and anti-inflammatory steroids from the soft coral Klyxum flaccidum” (Bioorg Med Chem Lett, 2016).

What was measured:
[1] = Antiinflammatory activity in human neutrophils assessed as inhibition of fMLP/CB-induced elastase release using MeO-Suc-Ala-Ala-Pro-Val-p-nitroanilide as substrate after 5 mins by […] analysis; type: functional, cell-based; settings: Neutrophil
[2] = Antiinflammatory activity in human neutrophils assessed as inhibition of fMLP/CB-induced superoxide anion generation after 5 mins by ferricytochrome c based spectrophotometric analysis; type: functional, cell-based; settings: Neutrophil
K562 = assay: Cytotoxicity against human K562 cells by Alamar blue assay; type: functional, cell-based
[3] = Antiinflammatory activity in human neutrophils assessed as inhibition of fMLP/CB-induced elastase release using MeO-Suc-Ala-Ala-Pro-Val-p-nitroanilide as substrate at 10 uM after 5 mins by […] analysis; type: functional; settings: Neutrophil
[4] = Antiinflammatory activity in human neutrophils assessed as inhibition of fMLP/CB-induced superoxide anion generation at 10 uM after 5 mins by ferricytochrome c based spectrophotometric analysis; type: functional; settings: Neutrophil
HT-29 = assay: Cytotoxicity against human HT-29 cells by Alamar blue assay; type: functional, cell-based
A549 = assay: Cytotoxicity against human A549 cells by Alamar blue assay; type: functional, cell-based
P388 = assay: Cytotoxicity against mouse P388 cells by Alamar blue assay; type: functional, cell-based
[5] = Cytotoxicity against human DLD1 cells by Alamar blue assay; type: functional, cell-based; settings: DLD-1

| IC50 [1] | IC50 [2] | Structure (SMILES) | IC50 (K562) | inhibition at 10 µM [3] | inhibition at 10 µM [4] | IC50 (HT-29) | IC50 (A549) | IC50 (P388) | IC50 [5] |
| --- | --- | --- | --- | --- | --- | --- | --- | --- | --- |
| 5.15 µM | 3.65 µM | O=c1cc(N2CCOCC2)oc2c(-c3ccccc3)cccc12 [LY-294002] |  |  |  |  |  |  |  |
| 4.4 µM | 5.64 µM | CC(C)[C@@H](C)[C@H](C)C[C@@](C)(O)C1=CC[C@H]2[C@@H]3CC=C4C[C@@H](O)CC[C@]4(C)[C@H]3[C@H](O)C[C@]12C | 12.7 µM | 114% | 76.3% | 15.1 µM | > 40 µM | 14.8 µM | > 40 µM |
|  |  | COc1cccc2c1C(=O)c1c(O)c3c(c(O)c1C2=O)C[C@@](O)(C(=O)CO)C[C@@H]3O[C@H]1C[C@H](N)[C@H](O)[C@H](C)O1 [DOXORUBICIN] | 0.94 µM |  |  | 0.87 µM | 0.55 µM | 0.9 µM | 2.78 µM |
| > 10 µM | > 10 µM | CC(C)[C@@H](C)[C@@]1(C)C[C@@H]1[C@@H](C)[C@H]1CC[C@H]2[C@@H]3[C@@H](O)C=C4C[C@@H](O)CC[C@]4(C)[C@@]3(O)[C@H](O)C[C@]12C | > 40 µM | 16.4% | -5.97% | > 40 µM | > 40 µM | > 40 µM | > 40 µM |
| > 10 µM | > 10 µM | CC(C)[C@@H](C)[C@@]1(C)C[C@@H]1[C@@H](C)[C@H]1CC[C@H]2[C@H]3[C@H]([C@H](O)C[C@]12C)[C@@]1(C)CC[C@H](O)CC1=C[C@@H]3O | > 40 µM | 21.8% | 11.1% | > 40 µM | > 40 µM | > 40 µM | > 40 µM |
|  |  | CC(C)[C@@H](C)[C@@]1(C)C[C@@H]1[C@@H](C)[C@H]1CC[C@H]2[C@H]3[C@H]([C@H](O)[C@H](O)[C@]12C)[C@@]1(C)CC[C@H](O)CC1=C[C@@H]3O | > 40 µM |  |  | > 40 µM | > 40 µM | 15.5 µM | > 40 µM |
